Data as given in patent US8906855B2, “Methods and compositions for treating conditions related to lack of blood supply, shock and neuronal injuries” (Vivacelle Bio, Inc., priority 2007, dated 2014).

Key:
[1] = cited from earlier work
[2] = Nitric oxide uptake/content of the emulsion by mass spectrometry; conditions: equilibrated 60 minutes with 100 ppm nitric oxide in helium; ten samples
Procedure: Some samples (1 ml each) were left open to air in 2.0 ml tubes for 30 minutes prior to dissolved gas analysis. In other experiments the emulsion was placed into a 15 ml tube. The headspace was filled with the gas under study and the gas was allowed to enter the emulsion by equilibration over 60 minutes with the tube on its side to increase the gas emulsion interaction. 50 μL drawn from each of these fluids were injected into a Sievers purge vessel at 37° C. containing 36 ml of a mildly acidic solution consisting of 32 ml of 1M HCL and 4 ml of 0.5M ascorbic acid. […] Signals generated at m/z=32 upon injection of RL and lipid emulsion samples were integrated using Peakfit and compared to those obtained with distilled water.
In another set of experiments we measured the uptake of nitric oxide by a commercially available 20% soybean oil emulsion, Liposyn III 20%. This emulsion contains 20% soybean oil, 1.2% egg phospholipids and 2.5% glycerin in water. Using NaOH pH was adjusted to 8.3. […] 100 ppm nitric oxide in helium was used to purge the headspace for two minutes taking care not to bubble the fluid. For sixty minutes the sample was allowed to reach gas-liquid equilibrium with the tube placed on its side to maximize gas-emulsion contact. The ***nitric oxide content was measured in ten samples that were equilibrated with nitric oxide and ten samples that were equilibrated with room air.

[3] = 1 atm; from The Engineering Toolbox; cited from earlier work
[4] = published value; cited from earlier work
[5] = Battion et al. 1968; cited from earlier work

## [Xe] [Xenon]
[1]; anesthetic
  minimum alveolar concentration (MAC): 71%
[1]; in vivo
  more potent than N2O as an anesthetic: 50%

## O [Water, water]
[2]
  nitric oxide content, mean and standard error: 2.12×10^−3+/−0.17×10^−3
[3]
  Oxygen Content at 25° C. and Sea level Pressure: 8.3 mg/L

## hemoglobin
[4]
  oxygen release time: 17.5 ms

## O=O [Oxygen]
[5]
  solubility in lipid relative to water: 4.41 times
